“And” between values parts separate entries of the source, which are not always exact repeats. Equal entries are not always repeated. Where two headings read alike, the source gives them in different places.
Experiments:
male ICR mice [1] = test: Tail-flick test, antagonism of nicotine-induced antinociception; type: in vivo; conditions: s.c., 15 min before nicotine 2.5 mg/kg, tested 5 min after nicotine; (confidence limits)
[2] = biological target: human α4β2 neuronal nAChRs (Homo sapiens, UniProt P17787+P43681); conditions: for α4β2 nH: Hill coefficient, mean
Chain of human α4β2 neuronal nAChRs (P43681 29-627 limits assumed): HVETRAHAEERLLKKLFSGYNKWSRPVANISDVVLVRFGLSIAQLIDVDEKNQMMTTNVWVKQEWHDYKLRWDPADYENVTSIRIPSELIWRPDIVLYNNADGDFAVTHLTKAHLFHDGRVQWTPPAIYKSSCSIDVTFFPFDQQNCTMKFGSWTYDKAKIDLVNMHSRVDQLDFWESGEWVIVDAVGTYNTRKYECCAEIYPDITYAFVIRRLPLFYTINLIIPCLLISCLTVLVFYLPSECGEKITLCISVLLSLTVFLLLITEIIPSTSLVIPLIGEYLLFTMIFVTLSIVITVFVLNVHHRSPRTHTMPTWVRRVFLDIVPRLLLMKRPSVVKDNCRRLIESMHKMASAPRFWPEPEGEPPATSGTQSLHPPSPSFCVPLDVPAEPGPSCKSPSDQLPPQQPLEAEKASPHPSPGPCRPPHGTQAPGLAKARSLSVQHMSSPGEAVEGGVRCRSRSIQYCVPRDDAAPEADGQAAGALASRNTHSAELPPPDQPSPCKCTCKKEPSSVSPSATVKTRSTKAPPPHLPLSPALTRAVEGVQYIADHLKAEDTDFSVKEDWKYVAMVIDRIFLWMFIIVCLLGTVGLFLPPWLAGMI
Chain of human α4β2 neuronal nAChRs (P17787 26-502): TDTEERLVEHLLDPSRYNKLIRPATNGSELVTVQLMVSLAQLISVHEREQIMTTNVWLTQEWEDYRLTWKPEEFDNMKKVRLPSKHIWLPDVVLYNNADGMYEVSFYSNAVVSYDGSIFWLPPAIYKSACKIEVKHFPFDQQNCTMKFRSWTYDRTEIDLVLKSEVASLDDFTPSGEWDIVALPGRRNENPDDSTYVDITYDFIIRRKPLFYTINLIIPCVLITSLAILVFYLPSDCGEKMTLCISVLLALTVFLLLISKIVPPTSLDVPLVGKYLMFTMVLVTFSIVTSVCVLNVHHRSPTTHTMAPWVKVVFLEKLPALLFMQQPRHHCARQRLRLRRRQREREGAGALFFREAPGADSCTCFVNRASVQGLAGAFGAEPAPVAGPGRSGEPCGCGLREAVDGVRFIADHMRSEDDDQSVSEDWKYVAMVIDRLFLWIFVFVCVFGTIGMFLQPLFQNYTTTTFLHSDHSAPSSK

α7 nAChRs = α7 nAChRs (Rattus norvegicus, UniProt Q05941); test: [125I]IodoMLA binding assay, rat cerebral cortex; conditions: read-out: Ki, [125I]MLA binding sites, 70 pM [125I]iodoMLA
Chain of α7 nAChRs (Q05941 23-502): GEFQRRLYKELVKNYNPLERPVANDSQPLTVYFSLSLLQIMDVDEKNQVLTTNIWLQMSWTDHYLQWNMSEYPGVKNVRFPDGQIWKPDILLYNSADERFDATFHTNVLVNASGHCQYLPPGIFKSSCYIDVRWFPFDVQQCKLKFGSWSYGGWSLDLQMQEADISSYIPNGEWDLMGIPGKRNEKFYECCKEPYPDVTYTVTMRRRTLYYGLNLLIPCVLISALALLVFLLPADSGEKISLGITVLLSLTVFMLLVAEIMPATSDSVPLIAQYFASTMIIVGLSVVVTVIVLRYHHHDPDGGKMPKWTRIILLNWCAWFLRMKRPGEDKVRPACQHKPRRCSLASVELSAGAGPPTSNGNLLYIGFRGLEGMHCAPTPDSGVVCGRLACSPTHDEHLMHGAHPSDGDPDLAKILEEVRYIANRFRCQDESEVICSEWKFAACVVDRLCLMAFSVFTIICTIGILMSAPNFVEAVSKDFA

male ICR mice [3] = test: Body temperature; type: in vivo
male ICR mice [4] = test: Hot-plate test, compound alone; type: in vivo; conditions: tested 15 min after injection
rat α3β4 nAChRs = rat α3β4 nAChRs (Rattus norvegicus, UniProt P04757+P12392); conditions: for α3β4 nH: Hill coefficient, mean
Chain of rat α3β4 nAChRs (P04757 26-499): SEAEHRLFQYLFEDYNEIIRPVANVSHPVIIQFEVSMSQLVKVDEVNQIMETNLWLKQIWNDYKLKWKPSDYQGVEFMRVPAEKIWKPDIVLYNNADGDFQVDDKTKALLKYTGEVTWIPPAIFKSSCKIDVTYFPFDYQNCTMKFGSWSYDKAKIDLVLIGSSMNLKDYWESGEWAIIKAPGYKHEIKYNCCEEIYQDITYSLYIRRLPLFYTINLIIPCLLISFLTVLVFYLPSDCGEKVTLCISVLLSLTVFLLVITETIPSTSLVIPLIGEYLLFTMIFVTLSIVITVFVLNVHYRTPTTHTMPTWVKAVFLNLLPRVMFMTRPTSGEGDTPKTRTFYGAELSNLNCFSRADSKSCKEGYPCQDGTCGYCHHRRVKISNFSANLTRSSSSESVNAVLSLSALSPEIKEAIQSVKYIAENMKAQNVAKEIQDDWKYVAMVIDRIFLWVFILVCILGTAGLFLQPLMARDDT
Chain of rat α3β4 nAChRs (P12392 21-495): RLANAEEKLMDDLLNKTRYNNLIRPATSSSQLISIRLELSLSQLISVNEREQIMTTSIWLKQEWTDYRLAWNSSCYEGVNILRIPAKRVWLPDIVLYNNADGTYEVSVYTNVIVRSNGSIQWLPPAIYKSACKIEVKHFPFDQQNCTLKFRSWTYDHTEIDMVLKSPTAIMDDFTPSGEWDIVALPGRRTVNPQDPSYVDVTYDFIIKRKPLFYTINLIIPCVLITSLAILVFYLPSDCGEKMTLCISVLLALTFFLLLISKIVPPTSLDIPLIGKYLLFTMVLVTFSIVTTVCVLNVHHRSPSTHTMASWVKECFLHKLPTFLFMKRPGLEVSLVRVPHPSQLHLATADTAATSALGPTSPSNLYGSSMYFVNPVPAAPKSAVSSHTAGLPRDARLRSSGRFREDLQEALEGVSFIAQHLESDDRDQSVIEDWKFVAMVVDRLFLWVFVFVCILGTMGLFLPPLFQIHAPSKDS

male ICR mice [5] = test: Hot-plate test, antagonism of nicotine-induced antinociception; type: in vivo; conditions: at 10 mg/kg s.c., 15 min before nicotine
neuronal nAChRs = test: Whole-cell patch-clamp, time course of inhibition; type: cell-based; conditions: co-application with ACh following pre-exposure
male ICR mice [6] = test: Tail-flick test, compound alone; type: in vivo; conditions: for ED50 Tail-flick, percent effect at the individual dose: tested 15 min after injection; for change of tail-flick latencies by the compound itself: highest dose tested
rat α7 nAChRs = rat α7 nAChRs (Rattus norvegicus, UniProt Q05941); conditions: for α7 nH: Hill coefficient, mean
Chain of rat α7 nAChRs (Q05941 23-502): as the sequence (Q05941 23-502) above

male ICR mice [7] = test: Body temperature, antagonism of nicotine-induced hypothermia; type: in vivo; conditions: for AD50 Body temperature, percent effect at the individual dose: 15 min before nicotine, tested 30 min after nicotine; for block of nicotine-induced hypothermia: mice
NMDA receptors = conditions: read-out: IC50, NMDA receptors; ref MacDonald et al., 1990; Morris et al., 2005; cited from earlier work
[8] = holding potential −100 to +60 mV, n=3

Question: Which “AD50 Tail-flick” value (male ICR mice [1]) does the source give for CN(C)c1ccc2c(c1)CC1CC(Cc3ccccc3)N(C)C21 (stereo not drawn) [HDMP, 1,2,3,3a,4,8b-hexahydro-2-benzyl-6-N,N-dimethylamino-1-methylindeno[1,2,-b]pyrrole] here?
Answer: 0.008 (0.004–0.015) mg/kg

Question: What about the “effect on whole-cell currents, α4β2” value ([2]; 0.1 μM, −80 mV, example cell) of the same compound?
Answer: no effect

Question: And the “α4β2 nH” value [2]?
Answer: 1.15

Question: What about the “voltage-dependence of inhibitory effect, α4β2” value [2, 8] of the same compound?
Answer: voltage-independent

Question: What about the IC50 ([2]; read-out: α4β2 IC50) of the same compound?
Answer: 25.1 µM

Question: What about the Ki (α7 nAChRs) of the same compound?
Answer: > 10 µM

Question: And the “ED50 Hypothermia, percent effect at the individual dose” value (male ICR mice [3]; at 10 mg/kg s.c.)?
Answer: 0%@10

Question: And the “ED50 Hot-Plate, percent effect at the individual dose” value (male ICR mice [4]; at 10 mg/kg s.c.)?
Answer: 8%@10

Question: And the “effect on whole-cell currents, α3β4” value (rat α3β4 nAChRs; 0.1 μM, −80 mV, example cell)?
Answer: no effect

Question: And the “α3β4 nH” value (rat α3β4 nAChRs)?
Answer: 1.06

Question: And the “fold less potent than PCP in inhibition of α3β4 nAChR function” value (rat α3β4 nAChRs; based on IC50s 28.98 and 6.35 μM)?
Answer: 4.6 fold

Question: What about the “voltage-dependence of inhibitory effect, α3β4” value (rat α3β4 nAChRs; [8]) of the same compound?
Answer: voltage-independent

Question: What about the IC50 (rat α3β4 nAChRs; read-out: α3β4 IC50) of the same compound?
Answer: 29 µM

Question: What about the “AD50 Hot-Plate, percent effect (inhibition) at the individual dose” value (male ICR mice [5]) of the same compound?
Answer: 20%@10

Question: What about the “time in which the inhibitory effect develops” value (neuronal nAChRs) of the same compound?
Answer: 40 to 60 s

Question: What about the “ED50 Tail-flick, percent effect at the individual dose” value (male ICR mice [6]; at 10 mg/kg s.c.) of the same compound?
Answer: 2%@10

Question: What about the “change of tail-flick latencies by the compound itself” value (male ICR mice [6]) of the same compound?
Answer: did not significantly change

Question: What about the “inhibition of whole-cell currents, α7” value (rat α7 nAChRs; 0.1 μM, −80 mV, example cell) of the same compound?
Answer: 55%

Question: And the “α7 nH” value (rat α7 nAChRs)?
Answer: 0.73

Question: What about the “fold more potent than PCP in inhibition of α7 nAChRs” value (rat α7 nAChRs; based on IC50 values 1.25 and 0.07 μM) of the same compound?
Answer: 18 fold

Question: And the “voltage-dependence of inhibitory effect, α7” value (rat α7 nAChRs; [8])?
Answer: voltage-independent

Question: What about the “fold more potent at α7 than at α3β4 nAChRs” value (rat α7 nAChRs; ratio of patch-clamp IC50s) of the same compound?
Answer: 414 fold

Question: What about the “fold more potent at α7 than at α4β2 nAChRs” value (rat α7 nAChRs; ratio of patch-clamp IC50s) of the same compound?
Answer: 357 fold

Question: And the “AD50 Body temperature, percent effect at the individual dose” value (male ICR mice [7]; at 10 mg/kg s.c.)?
Answer: 0%@10

Question: What about the “block of nicotine-induced hypothermia” value (male ICR mice [7]) of the same compound?
Answer: failed to block

Question: Which “AD50 Tail-flick” value (male ICR mice [1]) does the source give for c1ccc(C2(N3CCCCC3)CCCCC2)cc1 [PCP, phencyclidine, reference compound] here?
Answer: 1.1 (0.87–1.30) mg/kg

Question: And the “α4β2 nH” value [2]?
Answer: 1.4

Question: And the IC50 ([2]; α4β2 IC50)?
Answer: 29 µM

Question: What about the “ED50 Hypothermia, percent effect at the individual dose” value (male ICR mice [3]; at 5 mg/kg s.c.) of the same compound?
Answer: 5%@5

Question: And the “ED50 Hot-Plate, percent effect at the individual dose” value (male ICR mice [4]; at 5 mg/kg s.c.)?
Answer: 5%@5

Question: What about the “α3β4 nH” value (rat α3β4 nAChRs) of the same compound?
Answer: 0.65

Question: And the IC50 (rat α3β4 nAChRs; α3β4 IC50)?
Answer: 6.4 µM and 6.35 µM

Question: And the “ED50 Tail-flick, percent effect at the individual dose” value (male ICR mice [6]; at 5 mg/kg s.c.)?
Answer: 6%@5

Question: And the “change of tail-flick latencies by the compound itself” value (male ICR mice [6])?
Answer: did not significantly change

Question: And the “α7 nH” value (rat α7 nAChRs)?
Answer: 0.97

Question: And the “fold more potent at α7 than at α4β2 nAChRs” value (rat α7 nAChRs; ratio of patch-clamp IC50s)?
Answer: 23 fold

Question: And the “AD50 Body temperature, percent effect at the individual dose” value (male ICR mice [7]; at 5 mg/kg s.c.)?
Answer: 0%@5

Question: What about the “block of nicotine-induced hypothermia” value (male ICR mice [7]) of the same compound?
Answer: failed to block

Question: And the IC50 (NMDA receptors)?
Answer: ~1 µM

Reference: paper PMC2998338 (Neuropharmacology, 2010)
